The values below come from patent US20070155771A1, “Methods and means for treating protein conformational disorders” (priority 2003, published 2007).

Series [1] relates to COS-7 cells expressing EGFP tagged wild-type HD exon 1 protein with 23 glutamine repeats, EGFP-polyalanine with 7 repeats or empty EGFP. The experiment in a line: Control constructs (Q23, A7, empty EGFP) in transiently transfected COS-7 cells. In kind it is cell-based, African green monkey. The settings on record: 10 mM 3-MA. As to the method:
African green monkey kidney cells (COS-7) were grown in Dulbecco's Modified Eagle Medium (DMEM, Sigma) supplemented with 10% Fetal Bovine Serum (FBS), 100 U/ml Penicillin/Streptomycin, 2 mM L-Glutamine and 1 mM Sodium Pyruvate at 37° C., 5% Carbon dioxide. The cells were grown on coverslips in six-well plates for immunofluorescence analysis, or were directly grown in six-well plates to 60-80% confluency for 24 hours for western blot analysis. Transfection was done using LipofectAMINE reagent (Invitrogen) using the manufacturer's protocol. The transfection mixture was replaced by normal culture medium after 5 hours incubation at 37° C. and the transfected cells were analysed by immunofluorescence or immunoblot 48 hours after transfection. […] Equal amounts of water or DMSO were added to the untreated controls, where relevant. The cells on coverslips were rinsed with 1×PBS, fixed with 4% paraformaldehyde in 1×PBS for 20 min and mounted in […] supplemented with 4',6-diamidino-2-phenylindole (DAPI, 3 μg/ml, Sigma) to allow visualisation of nuclear morphology. […] Aggregate formation and nuclear morphology were assessed using a fluorescence microscope. 200 EGFP positive COS-7 cells were selected and the proportion of cells with aggregates was counted. […]

For series [2] the following is noted: cited from earlier work.
Series [3] concerns COS-7 cells expressing an exon 1 fragment of the HD gene with 74 glutamines (Q74). The experiment in a line: Aggregate formation and abnormal cell nuclei in transiently transfected COS-7 cells expressing Q74. Type of series: cell-based, African green monkey. The settings on record: 24 hours post transfection; 0.2 μg/ml rapamycin.

`Cn1cnc(N)c2ncnc1-2` [3-MA, 3-methyl adenine]: in series [1], the “aggregate formation in cells expressing Q23 or A7” value is given as “did not cause aggregate formation” and the “levels of empty EGFP” value is given as “did not cause any change”.

With rapamycin, the water solubility result in series [2] is “poor”. For the same compound, in series [3], the “cell death in Q74-expressing cells” value is “reduced” and the “proportions of cells with Q74 aggregates” value was “reduced”.
